Measured values reported in PubChem BioAssay (NCI).
Values joined by “and” are separate entries in the source; they are usually repeats but may differ in a detail not shown here. Equal values may be shown once.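 Tested at 5 concentrations; 48 h exposure; 96-well plates; endpoints linearly interpolated, else capped at highest concentration. GI50 is the concentration that inhibits growth by half. TGI is the concentration that stops growth completely.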

Columns and labels:
Assay in all cases: DTP human tumour cell line panel, 48 h
MDA-MB-435 = system: MDA-MB-435
OVCAR-3 ovarian = system: OVCAR-3 ovarian
TK-10 renal = system: TK-10 renal
PC-3 prostate = system: PC-3 prostate
UACC-62 melanoma = system: UACC-62 melanoma
SN12C renal = system: SN12C renal
HCT-116 colon = system: HCT-116 colon
CCRF-CEM leukemia = system: CCRF-CEM leukemia
M19-MEL melanoma = system: M19-MEL melanoma
DLD-1 colon = system: DLD-1 colon

## Cn1cc(CO)c2ccccc21
MDA-MB-435
  GI50: 3.45 µM
  TGI: 21 µM
OVCAR-3 ovarian
  GI50: 29.5 µM
  TGI: > 100 µM
TK-10 renal
  GI50: > 100 µM
  TGI: > 100 µM
PC-3 prostate
  GI50: 85 µM
  TGI: > 100 µM
UACC-62 melanoma
  GI50: 54.9 µM
  TGI: > 100 µM
SN12C renal
  GI50: 50.9 µM
  TGI: > 100 µM
HCT-116 colon
  GI50: 26.9 µM
  TGI: > 100 µM
CCRF-CEM leukemia
  GI50: > 100 µM
  TGI: > 100 µM

## CC(=O)OCCC(O[Si](c1ccccc1)(c1ccccc1)C(C)(C)C)C(C)(C)O (stereo unspecified)
OVCAR-3 ovarian
  TGI: 62.2 µM
TK-10 renal
  TGI: > 100 µM
UACC-62 melanoma
  TGI: > 100 µM
SN12C renal
  TGI: 34.2 µM
M19-MEL melanoma
  TGI: 57.2 µM
HCT-116 colon
  TGI: 31.2 µM
CCRF-CEM leukemia
  TGI: 67.6 µM

## NC(=O)c1cc(I)ccc1NC(=O)COc1ccccc1
MDA-MB-435
  GI50: 0.107 µM
  TGI: 0.359 µM
OVCAR-3 ovarian
  GI50: 0.336 µM
  TGI: 1.35 µM
TK-10 renal
  GI50: 5.38 µM
  TGI: 50.9 µM
PC-3 prostate
  GI50: 0.471 µM
  TGI: > 100 µM
UACC-62 melanoma
  GI50: 0.814 µM
  TGI: > 100 µM
SN12C renal
  GI50: 2.3 µM
  TGI: > 100 µM
HCT-116 colon
  GI50: 0.499 µM
  TGI: 16.1 µM
CCRF-CEM leukemia
  GI50: 0.463 µM
  TGI: > 100 µM

## CN(C)CCCN1c2ccccc2Sc2ccc(Cl)cc21
MDA-MB-435
  GI50: 1.94 µM and 2.21 µM
  TGI: 4.04 µM and 6.09 µM
OVCAR-3 ovarian
  GI50: 3.83 µM and 6.36 µM
  TGI: 12.6 µM and 18.8 µM
TK-10 renal
  GI50: 9.64 µM and 6.76 µM
  TGI: 22.3 µM and 20.3 µM
PC-3 prostate
  GI50: 11.9 µM and 4.52 µM
  TGI: 26.3 µM and 17.3 µM
UACC-62 melanoma
  GI50: 1.94 µM and 2.07 µM
  TGI: 4.01 µM and 5.11 µM
SN12C renal
  GI50: 3.85 µM and 4.87 µM
  TGI: 14.8 µM and 17.7 µM
HCT-116 colon
  GI50: 3.28 µM and 3.6 µM
  TGI: 10.9 µM and 12.8 µM
CCRF-CEM leukemia
  GI50: 7.38 µM
  TGI: 24.3 µM

## O=C(CCN1CCCC1)Nc1ccc2c(Nc3ccccc3)c3ccccc3nc2c1
MDA-MB-435
  GI50: 1.44 µM
  TGI: 2.84 µM
OVCAR-3 ovarian
  GI50: 1.06 µM
  TGI: 3.27 µM
TK-10 renal
  GI50: 1.28 µM
  TGI: 3.78 µM
PC-3 prostate
  GI50: 0.951 µM
  TGI: 3.01 µM
UACC-62 melanoma
  GI50: 1.12 µM
  TGI: 2.55 µM
SN12C renal
  GI50: 0.306 µM
  TGI: 1.81 µM
HCT-116 colon
  GI50: 0.611 µM
  TGI: 2.2 µM
CCRF-CEM leukemia
  GI50: 0.142 µM
  TGI: 2.14 µM

## O=C(O)C1C(C(=O)O)C2(Cl)C(Cl)=C(Cl)C1(Cl)C2(Cl)Cl.[Cd] (stereo unspecified)
MDA-MB-435
  GI50: 7.61 µM
  TGI: 25.2 µM
OVCAR-3 ovarian
  GI50: 7.81 µM
  TGI: 19.7 µM
TK-10 renal
  GI50: 19 µM
  TGI: 34.7 µM
PC-3 prostate
  GI50: 15.3 µM
  TGI: 29.7 µM
UACC-62 melanoma
  GI50: 3.84 µM
  TGI: 15.4 µM
SN12C renal
  GI50: 18.4 µM
  TGI: 36.1 µM
HCT-116 colon
  GI50: 17.5 µM
  TGI: 32.5 µM
CCRF-CEM leukemia
  GI50: 16.5 µM
  TGI: 61.4 µM

## CC[C@H](C)[C@H](NC(=O)[C@H]1CCCCN1C)C(=O)N(C)[C@H](C[C@@H](OC(C)=O)c1nc(C(=O)N[C@@H](Cc2ccccc2)C[C@H](C)C(=O)OC)cs1)C(C)C
MDA-MB-435
  GI50: < 0.0025 µM
  TGI: < 0.0025 µM
OVCAR-3 ovarian
  GI50: 4.24e-05 µM
  TGI: 0.0116 µM
TK-10 renal
  GI50: 0.0254 µM
PC-3 prostate
  TGI: > 25 µM
UACC-62 melanoma
  TGI: > 25 µM
SN12C renal
  GI50: 0.00076 µM and 0.0025 µM
  TGI: > 25 µM
HCT-116 colon
  GI50: 0.000357 µM
CCRF-CEM leukemia
  GI50: 0.000552 µM and 0.0025 µM
  TGI: 2.5 µM

## Cc1ccccc1NC(=O)C(=O)CC(=O)c1ccc([N+](=O)[O-])cc1
OVCAR-3 ovarian
  TGI: > 100 µM
TK-10 renal
  TGI: > 100 µM
UACC-62 melanoma
  TGI: > 100 µM
SN12C renal
  TGI: > 100 µM
M19-MEL melanoma
  TGI: > 100 µM
HCT-116 colon
  TGI: > 100 µM
DLD-1 colon
  TGI: > 100 µM
